Experimental data reported in ChEMBL document CHEMBL4152285, “Structure-based design and profiling of novel 17β-HSD14 inhibitors” (Eur J Med Chem, 2018).
Converted amounts (≈) assume the structure as drawn. The source made the active and inactive calls. The calls are words filed in the database; no cut-off is given here.

Columns and labels:
[1] = biological target: T1, 17-beta-hydroxysteroid dehydrogenase type 1 (Homo sapiens) (UniProt P14061); experiment: Inhibition of human placental cytosolic 17beta-HSD1 using [2,4,6,7-3H]-labeled E1/E1 as substrate and NADH at 1 uM after 10 mins by HPLC based radioflow detection method
T1 sequence (whole entry): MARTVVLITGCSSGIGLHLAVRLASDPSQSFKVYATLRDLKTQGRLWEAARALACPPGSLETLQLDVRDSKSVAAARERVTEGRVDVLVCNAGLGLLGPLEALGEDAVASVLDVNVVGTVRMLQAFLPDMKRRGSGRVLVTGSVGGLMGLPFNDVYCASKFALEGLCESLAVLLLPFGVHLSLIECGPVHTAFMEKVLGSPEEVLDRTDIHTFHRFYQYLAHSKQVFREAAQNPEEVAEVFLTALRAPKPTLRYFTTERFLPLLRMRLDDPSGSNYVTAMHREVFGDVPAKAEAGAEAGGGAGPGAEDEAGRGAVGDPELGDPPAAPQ

[2] = Solubility of the compound in PBS at 200 uM at pH 7.4 measured after 24 hrs; assay type: physicochemical
[3] = biological target: T2, 17-beta-hydroxysteroid dehydrogenase 14 (Homo sapiens, UniProt Q9BPX1); experiment: Binding affinity to recombinant 17beta-HSD14 (unknown origin) expressed in Escherichia coli BL21 pLysS strain using E2 as substrate in presence of NAD measured continuously for 15 mins by fluorimetric method
T2 sequence (Q9BPX1 whole entry): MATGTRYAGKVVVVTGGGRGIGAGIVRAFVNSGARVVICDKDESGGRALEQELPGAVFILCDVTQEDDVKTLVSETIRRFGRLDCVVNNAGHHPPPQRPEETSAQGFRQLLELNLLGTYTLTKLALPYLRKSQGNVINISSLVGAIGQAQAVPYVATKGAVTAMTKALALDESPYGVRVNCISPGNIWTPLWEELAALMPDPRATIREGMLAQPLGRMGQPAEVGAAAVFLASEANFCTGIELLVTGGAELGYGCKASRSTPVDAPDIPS

[4] = biological target: T3, 17-beta-hydroxysteroid dehydrogenase type 2 (Homo sapiens) (UniProt P37059); experiment: Inhibition of human placental cytosolic 17beta-HSD2 using [2,4,6,7-3H]-labeled E2/E2 as substrate and NADH at 1 uM after 10 mins by HPLC based radioflow detection method
T3 sequence (whole entry): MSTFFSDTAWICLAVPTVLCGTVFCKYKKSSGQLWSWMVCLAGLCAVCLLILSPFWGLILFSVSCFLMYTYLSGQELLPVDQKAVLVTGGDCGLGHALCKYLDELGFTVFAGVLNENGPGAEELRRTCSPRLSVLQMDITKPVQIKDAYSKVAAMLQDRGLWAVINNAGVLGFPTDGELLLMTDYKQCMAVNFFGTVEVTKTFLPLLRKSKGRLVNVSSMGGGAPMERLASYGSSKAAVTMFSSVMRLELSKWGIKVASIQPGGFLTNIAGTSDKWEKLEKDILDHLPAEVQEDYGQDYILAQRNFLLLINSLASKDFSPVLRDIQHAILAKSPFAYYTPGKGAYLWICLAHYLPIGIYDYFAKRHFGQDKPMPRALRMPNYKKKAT

[5] = biological target: T4, 3-hydroxyacyl-CoA dehydrogenase type-2 (Homo sapiens) (UniProt Q99714); experiment: Inhibition of human full length N-terminal GST-tagged 17beta-HSD10 expressed in Escherichia coli BL21 DE3 Codon plus using [6,7-3H]-labeled E2/E2 as substrate and NADH at 1 uM after 30 mins by HPLC based radioflow detection method
T4 sequence (whole entry): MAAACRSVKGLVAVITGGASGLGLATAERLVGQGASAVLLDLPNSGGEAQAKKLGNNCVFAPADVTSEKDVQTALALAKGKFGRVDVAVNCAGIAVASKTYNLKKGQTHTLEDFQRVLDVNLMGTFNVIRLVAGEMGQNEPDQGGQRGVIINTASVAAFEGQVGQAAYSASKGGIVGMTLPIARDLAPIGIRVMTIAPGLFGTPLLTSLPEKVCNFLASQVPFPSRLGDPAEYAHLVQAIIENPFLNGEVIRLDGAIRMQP

[6] = Cytotoxicity against HEK293 cells assessed as decrease in cell viability after 72 hrs by MTT assay; assay type: cell-based; conditions: human, read-out: IG50
[7] = Cytotoxicity against HEK293 cells assessed as cell survival at 20 uM after 72 hrs by MTT assay relative to control; assay type: cell-based; conditions: human, read-out: Survival
[8] = biological target: T5, ERalpha (estrogen receptor) (Homo sapiens, UniProt P03372); experiment: Agonist activity at ERalpha (unknown origin) expressed in human U2OS cells after 24 hrs by luciferase reporter gene assay relative to E2; assay type: cell-based; conditions: U2OS cells expressing ERalpha, read-out: Activity
T5 sequence (P03372 whole entry): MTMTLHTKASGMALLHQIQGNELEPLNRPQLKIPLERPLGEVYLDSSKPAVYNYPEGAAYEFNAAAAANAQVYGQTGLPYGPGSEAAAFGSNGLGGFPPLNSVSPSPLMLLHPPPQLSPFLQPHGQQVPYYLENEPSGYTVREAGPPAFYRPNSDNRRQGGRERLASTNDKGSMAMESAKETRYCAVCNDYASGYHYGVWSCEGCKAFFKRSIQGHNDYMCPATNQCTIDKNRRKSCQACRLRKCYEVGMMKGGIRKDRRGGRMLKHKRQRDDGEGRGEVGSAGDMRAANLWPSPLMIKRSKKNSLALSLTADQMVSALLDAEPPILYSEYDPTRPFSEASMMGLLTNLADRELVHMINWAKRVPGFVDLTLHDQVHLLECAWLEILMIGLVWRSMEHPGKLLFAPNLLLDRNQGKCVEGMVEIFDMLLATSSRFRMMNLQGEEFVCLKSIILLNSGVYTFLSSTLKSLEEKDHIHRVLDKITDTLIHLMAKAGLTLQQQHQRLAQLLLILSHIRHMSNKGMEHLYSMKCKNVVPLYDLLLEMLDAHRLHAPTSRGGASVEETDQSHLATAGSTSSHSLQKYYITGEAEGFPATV

Estrogen receptor = biological target: T6, Estrogen receptor (Homo sapiens, UniProt P03372); experiment: Agonist activity at ERalpha (unknown origin) expressed in human U2OS cells after 24 hrs by luciferase reporter gene assay; assay type: cell-based
T6 sequence (P03372 whole entry): T5 sequence (P03372 whole entry)

[9] = biological target: T7, 17-beta-hydroxysteroid dehydrogenase 14 (Homo sapiens) (UniProt Q9BPX1); experiment: Inhibition of recombinant 17beta-HSD14 (unknown origin) expressed in Escherichia coli BL21 pLysS strain at 2 uM using E2 as substrate in presence of NAD measured continuously for 15 mins by fluorimetric method
T7 sequence (whole entry): T2 sequence (Q9BPX1 whole entry)

[10] = biological target: T7, 17-beta-hydroxysteroid dehydrogenase 14 (Homo sapiens); experiment: Inhibition of recombinant 17beta-HSD14 (unknown origin) expressed in Escherichia coli BL21 pLysS strain at 100 uM using E2 as substrate in presence of NAD measured continuously for 15 mins by fluorimetric method

| inhibition [1] | solubility at 24 h, 200 µM [2] [µM] | Ki [3] [nM] | inhibition [4] [%] | inhibition [5] | inhibition [9] [%] | inhibition [10] [%] | Compound | GI50 at 72 h [6] [nM] | viability at 72 h, 20 µM [7] [%] | Emax at 24 h [8] [%] | Activity (Estrogen receptor) |
| --- | --- | --- | --- | --- | --- | --- | --- | --- | --- | --- | --- |
| 57% | > 200 | 47 | 82 | inactive | – | – | Oc1cc(Nc2cccc(-c3cccc(O)c3F)n2)ccc1F | – | – | – | – |
| 69% | > 200 | 58 | 100 | 17% | – | – | Oc1cc(Oc2cccc(-c3cccc(O)c3F)n2)ccc1F | – | – | – | – |
| – | – | 2030 | – | – | – | – | CN(C(=O)c1ccc(F)c(O)c1)c1cccc(-c2cccc(O)c2F)n1 | – | – | – | – |
| 99% | > 200 | 42 | 100 | 19% | – | – | CN(c1ccc(F)c(O)c1)c1cccc(-c2cccc(O)c2F)n1 | – | – | – | – |
| 64% | 25 to 50 (≈ 6.66 to 13.3 µg/mL) | 6 | 96 | inactive | – | – | O=C(c1ccc(F)c(O)c1)c1ccc2ccccc2c1 | – | – | – | – |
| 11% | 13 to 25 (≈ 4.85 to 9.33 µg/mL) | 6 | 80 | inactive | – | – | Cc1cc(-c2ccc3ccc(C(=O)c4ccc(F)c(O)c4)nc3c2)ccc1O | – | – | – | – |
| – | – | 336 | – | – | – | – | O=C(Nc1ccc(F)c(O)c1)c1cccc(-c2cccc(O)c2F)n1 | – | – | – | – |
| 6% | > 200 | 12 | 76 | inactive | 69 | – | O=C(c1ccc(F)c(O)c1)c1ccc2ccccc2n1 | – | – | – | – |
| – | 100 to 200 (≈ 28.1 to 56.3 µg/mL) | – | – | – | – | 21 | COc1cc(C(=O)c2ccc3ccccc3n2)ccc1F | – | – | – | – |
| 21% | > 200 | 34 | 83 | inactive | – | – | Nc1ccc2ccc(C(=O)c3ccc(F)c(O)c3)nc2c1 | – | – | – | – |
| – | – | 686 | – | – | – | – | O=C(Nc1cccc(-c2cccc(O)c2F)n1)c1ccc(F)c(O)c1 | – | – | – | – |

| Compound | inhibition [1] | solubility at 24 h, 200 µM [2] [µM] | Ki [3] [nM] | inhibition [4] [%] | inhibition [5] | inhibition [9] [%] | inhibition [10] [%] | GI50 at 72 h [6] [nM] | viability at 72 h, 20 µM [7] [%] | Emax at 24 h [8] [%] | Activity (Estrogen receptor) |
| --- | --- | --- | --- | --- | --- | --- | --- | --- | --- | --- | --- |
| C=C(c1ccc(F)c(O)c1)c1cccc(-c2cccc(O)c2F)n1 | 88% | > 200 | 1.5 | 100 | inactive | – | – | > 100000 | 80 | – | – |
| O=C(c1ccc(F)c(O)c1)c1cccc(-c2cccc(O)c2F)n1 | 8% | > 200 | – | 56 | inactive | – | – | > 100000 | 80 | 13 | – |
| O=C(c1ccc(F)c(O)c1)c1ccc2cc(O)ccc2n1 | 20% | > 200 | 119 | 71 | inactive | – | – | > 100000 | 80 | – | – |
| N#Cc1ccc2ccc(C(=O)c3ccc(F)c(O)c3)nc2c1 | inactive | 25 to 50 (≈ 7.31 to 14.6 µg/mL) | 9 | 56 | inactive | – | – | – | 80 | – | Not Active |
| Cc1ccc2nc(C(=O)c3ccc(F)c(O)c3)ccc2c1 | 12% | 25 to 50 (≈ 7.03 to 14.1 µg/mL) | 6 | 78 | inactive | – | – | – | 80 | – | – |
| O=C(c1ccc(F)c(O)c1)c1ccc2ccc(-c3nnn[nH]3)cc2n1 | inactive | 50 to 100 (≈ 16.8 to 33.5 µg/mL) | 10 | 52 | inactive | – | – | > 100000 | 80 | – | Not Active |
